Patent US9260375B2, “Metallo-β-lactamase inhibitors” (priority 2005, dated 2016)

Key:
[1] = tested on: IMP-1 producing Pseudomonas aeruginosa strain PAO1/pMS363; assay type: cell-based; conditions: no inhibitor, in µg/mL
Description: IMP-1 producing Pseudomonas aeruginosa strain PAO1/pMS363 (FEMS Microbiology Letters 1994, 121, 175) was used for evaluating the inhibitory effect of maleic acid derivatives on the resistance against carbapenem by the metallo-β-lactamase in bacteria.

VIM-2 = biological target: T1, VIM-2 (UniProt Q5U7L7); test: biochemical; conditions: nitrocefin 100 μM, VIM-2 1.5 nM, ZnSO4 100 μM, 50 mM HEPES pH 7.5, room temperature 20 min; read-out: IC50 of each inhibitor against VIM-2
T1 construct: His tag (C); made in house; host or cells: E. coli DH5α
Method: (§1) The PCR product was integrated into pTrcHis2 TOPO vector (Invitrogen), and then introduced into E. coli DH5α (TOYOBO) for culture under the induction of 0.5 mM Isopropyl-β-D-(−)-thiogalactopyranoside (Wako) at 37° C. for 3 h to express IMP-1. After recovering the bacterial cells, the periplasmic fraction was extracted by ocmotic shock with sucrose to refine the IMP-1 by Ni-NTA Slurry (QIAGEN) with the His tag at the C-terminus.
(§2) In order to determine the inhibitory activity of metallo-β-lactamase, a 50 mM HEPES (pH 7.5) buffer (referred to hereinafter as “buffer”) was used, and nitrocefin (Oxoid) with the final concentration of 100 μM was used as a substrate. A test drug (material to be tested: compound having an Example Number shown in Table 2) was added to each well of a 96-well plate, into which nitrocefin was added and mixed. Then, IMP-1 or VIM-2 was added to each well in the final concentration of 1 nM or 1.5 nM, respectively to react the mixture at room temperature for 20 min. In this case, ZnSO4 was added in the final concentration of 100 μM in order to exclude the inhibitory effect by the chelate effect. Enzyme inhibiting activity was determined by measuring the hydrolysis activity of nitrocefin at a wave length of 490 nm with ARVOsx microplate reader (Wallac).

IMP-1 = biological target: T2, IMP-1 (Serratia marcescens, UniProt P52699); test: biochemical; conditions: nitrocefin 100 μM, IMP-1 1 nM, ZnSO4 100 μM, 50 mM HEPES pH 7.5, room temperature 20 min; read-out: IC50 of each inhibitor against IMP-1
T2 construct: The total length of IMP-1 as a metallo-β-lactamase was amplified by PCR; His tag (C); made in house; host or cells: E. coli DH5α, pTrcHis2 TOPO vector, periplasmic fraction
T2 sequence (P52699 19-246 limits assumed): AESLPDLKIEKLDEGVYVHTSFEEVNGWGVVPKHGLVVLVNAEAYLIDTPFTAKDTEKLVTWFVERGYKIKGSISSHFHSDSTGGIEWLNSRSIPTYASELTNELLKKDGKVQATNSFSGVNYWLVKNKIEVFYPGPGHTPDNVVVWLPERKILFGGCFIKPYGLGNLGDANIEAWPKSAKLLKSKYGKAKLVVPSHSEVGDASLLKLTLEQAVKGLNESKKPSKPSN
Method: as §1, §2

Row | IC50 (VIM-2) | IC50 (IMP-1) | SMILES | MIC of β-lactam drugs, β-lactam alone [1]
1 | 5300 nM | 2800 nM | CC(C)/C(C(=O)O)=C(\Cc1cccnc1)C(=O)O [Example 54, 2-Isopropyl-3-[(pyridine-3-yl)methyl]maleic acid disodium] | 
2 | 14000 nM | 1200 nM | CC/C(C(=O)O)=C(\SC(C)C)C(=O)O [Example 66, 3-Ethyl-2-isopropylthiomaleic acid disodium] | 
3 | 600 nM | 1400 nM | CC(C)/C(C(=O)O)=C(\Cc1ccc(C(N)=O)cc1)C(=O)O [Example 72, 2-(4-Carbamoylbenzyl)-3-isopropylmaleic acid disodium] | 
4 | 1900 nM | 560 nM | CC(C)/C(C(=O)O)=C(\Cc1ccc(O)cc1)C(=O)O [Example 86, 2-(4-Oxidobenzyl)-3-isopropylmaleic acid trisodium] | 
5 | 300 nM | 980 nM | CC(C)/C(C(=O)O)=C(\Cc1ccc(OCCN)cc1)C(=O)O [Example 92, 2-[4-(2-aminoethoxy)benzyl]-3-isopropylmaleic acid disodium] | 

More lines, now with the values behind:

Row | SMILES | IC50 (VIM-2) | IC50 (IMP-1) | MIC of β-lactam drugs, β-lactam alone [1]
6 | C[C@@H](O)[C@H]1C(=O)N2C(C(=O)[O-])=C(SC3Cn4cnc[n+]4C3)[C@H](C)[C@H]12 (stereo partly shown) [BIPM, biapenem] |  |  | 64-128
7 | CC(C)(O/N=C(\C(=O)N[C@@H]1C(=O)N2C(C(=O)[O-])=C(C[n+]3ccccc3)CS[C@H]12)c1csc(N)n1)C(=O)O [CAZ, ceftadizime] |  |  | 2048
8 | CO/N=C(\C(=O)N[C@@H]1C(=O)N2C(C(=O)[O-])=C(C[N+]3(C)CCCC3)CS[C@H]12)c1csc(N)n1 [CFPM, cefepime] |  |  | 2048
9 | C[C@@H](O)[C@H]1C(=O)N2C(C(=O)O)=C(S[C@H]3C[C@@H](C(=O)N4CC[C@H](NC(=O)CNC(=N)N)C4)N(C)C3)[C@H](C)[C@H]12 [CS-023, (−)-(4R,5S,6S)-3-[[(3S,5S)-5-[(S)-3-(2-guanidinoacetylamino)pyrrolidin-1-ylcarbonyl]-1-methylpyrrolidin-3-yl]thio]-6-[(R)-1-hydroxyethyl]-4-methyl-7-oxo-azabicyclo[3.2.0]hept-2-ene-2-carboxylic acid] |  |  | 256
10 | CO/N=C(\C(=O)N[C@@H]1C(=O)N2C(C(=O)O)=C(CSc3nc(=O)c(=O)[nH]n3C)CS[C@H]12)c1csc(N)n1 [CTRX, ceftriaxone] |  |  | 4096
11 | C[C@@H](O)[C@H]1C(=O)N2C(C(=O)O)=C(S[C@@H]3CN[C@H](CNS(N)(=O)=O)C3)[C@H](C)[C@H]12 [DRPM, doripenem] |  |  | 128
12 | CC/C(C(=O)O)=C(\Cc1ccccc1)C(=O)O [Example 11, 2-benzyl-3-ethylmaleic acid disodium] | 3000 nM | 290 nM | 
13 | C/C(C(=O)O)=C(/C(=O)O)C(C)C [Example 22, 2-isopropyl-3-methylmaleic acid disodium] | 7300 nM | 2400 nM | 
14 | CC(C)/C(C(=O)O)=C(/C(=O)O)C1CCCCC1 [Example 43, 2-Cyclohexyl-3-isopropylmaleic acid disodium] | 160 nM | 190 nM | 
15 | CC(C)/C(C(=O)O)=C(/C(=O)O)C1CCOCC1 [Example 51, 3-Isopropyl-2-(tetrahydropyran-4-yl)maleic acid disodium] | 1800 nM | 1900 nM | 
16 | C[C@@H](O)[C@H]1C(=O)N2C(C(=O)O)=C(SCCN=CN)C[C@H]12 [IPM, imipenem] |  |  | 128-256
